Columns and labels:
[1] = biological target: T1, p38 MAPKα isoform (MAPK14) (Homo sapiens, UniProt Q16539); experiment: p38 MAPKα enzyme inhibition (Z-LYTE FRET); assay type: biochemical; conditions: Table 2B, unit inferred; read-out: p38 MAPKα (Enzyme Profile)
T1 construct: purchased Life Technologies
How it was run: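 Activity was measured indirectly as phosphorylation of a MAPKAP-K2-derived FRET peptide. Enzyme (added at 40 ng/mL) was preincubated 2 h at RT with compound (added solutions 40–0.0012 μg/mL).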

p38MAPKγ (MAPK12) = biological target: T2, p38MAPKγ (MAPK12) (Homo sapiens, UniProt P53778); experiment: p38 MAPKγ enzyme inhibition (Z-LYTE FRET); assay type: biochemical; conditions: Table 2B, unit inferred; read-out: p38 MAPKγ (Enzyme Profile)
T2 construct: purchased Life Technologies
T2 sequence (P53778 1-367): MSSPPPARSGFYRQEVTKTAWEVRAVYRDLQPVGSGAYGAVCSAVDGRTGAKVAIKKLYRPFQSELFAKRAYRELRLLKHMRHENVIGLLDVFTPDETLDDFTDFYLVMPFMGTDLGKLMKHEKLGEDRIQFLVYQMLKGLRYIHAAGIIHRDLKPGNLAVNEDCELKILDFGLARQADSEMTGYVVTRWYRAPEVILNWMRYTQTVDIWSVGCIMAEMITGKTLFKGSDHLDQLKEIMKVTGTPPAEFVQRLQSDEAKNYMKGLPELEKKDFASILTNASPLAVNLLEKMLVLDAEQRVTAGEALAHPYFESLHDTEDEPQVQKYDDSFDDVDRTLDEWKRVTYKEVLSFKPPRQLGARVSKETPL
How it was run: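 Enzyme (added at 800 ng/mL) was preincubated 2 h at RT with compound (solutions of 40 to 0.0012 μg/mL), then FRET peptide (8 μM) and ATP (400 μM), both as added, were reacted 1 h at RT. Protease development followed for 1 h; phosphorylation was read as the coumarin/fluorescein emission ratio.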

T1 sequence (Q16539 whole entry, canonical isoform): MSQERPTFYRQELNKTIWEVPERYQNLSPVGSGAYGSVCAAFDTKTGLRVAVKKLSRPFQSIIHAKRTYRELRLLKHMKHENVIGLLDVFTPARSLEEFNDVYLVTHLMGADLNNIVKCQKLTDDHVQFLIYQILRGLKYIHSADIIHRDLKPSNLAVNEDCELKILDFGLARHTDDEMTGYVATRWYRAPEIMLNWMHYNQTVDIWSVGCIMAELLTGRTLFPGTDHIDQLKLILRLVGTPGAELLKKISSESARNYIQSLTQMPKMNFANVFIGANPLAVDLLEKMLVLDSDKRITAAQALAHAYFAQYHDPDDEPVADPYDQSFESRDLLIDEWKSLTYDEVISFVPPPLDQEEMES

Structure (SMILES) | IC50 [1] [nM] | IC50 (p38MAPKγ (MAPK12)) [nM]
COc1ccc(-n2nc(C(C)(C)C)cc2NC(=O)Nc2ccc(OCc3ccnc(Nc4cnccn4)c3)c3ccccc23)cc1F [Example 148, 1-(3-(tert-butyl)-1-(3-fluoro-4-methoxyphenyl)-1H-pyrazol-5-yl)-3-(4-((2-(pyrazin-2-ylamino)pyridin-4-yl)methoxy)naphthalen-1-yl)urea] | 13 | 247
CSc1ccc(-n2nc(C(C)(C)C)cc2NC(=O)Nc2ccc(OCc3ccnc(Nc4cnccn4)c3)c3ccccc23)cc1 [Example 149, 1-(3-(tert-butyl)-1-(4-(methylthio)phenyl)-1H-pyrazol-5-yl)-3-(4-((2-(pyrazin-2-ylamino)pyridin-4-yl)methoxy)naphthalen-1-yl)urea] | 13 | > 15900
Cc1ccc(-n2nc(C(C)(C)C)cc2NC(=O)Nc2ccc(OCc3ccnc(Nc4cnc(C)c(C5CC5)n4)c3)c3ccccc23)cc1 [Example 150, 1-(3-(tert-butyl)-1-(p-tolyl)-1H-pyrazol-5-yl)-3-(4-((2-((6-cyclopropyl-5-methyl-pyrazin-2-yl)amino)pyridin-4-yl)methoxy)naphthalen-1-yl)urea] | 25 | 229
CCc1cnc(Nc2cc(COc3ccc(NC(=O)Nc4cc(C(C)(C)C)nn4-c4ccc(C)c(C)c4)c4ccccc34)ccn2)cn1 [Example 151, 1-(3-(tert-butyl)-1-(3,4-dimethylphenyl)-1H-pyrazol-5-yl)-3-(4-((2-((5-ethylpyrazin-2-yl)amino)pyridin-4-yl)methoxy)naphthalen-1-yl)urea] | 35 | 439
COCCNC(=O)c1cnc(Nc2cc(COc3ccc(NC(=O)Nc4cc(C(C)(C)C)nn4-c4cccc(C)c4)c4ccccc34)ccn2)cn1 [Example 152, 5-((4-(((4-(3-(3-(tert-butyl)-1-(m-tolyl)-1H-pyrazol-5-yl)ureido)naphthalen-1-yl)oxy)methyl)pyridin-2-yl)amino)-N-(2-methoxyethyl) pyrazine-2-carboxamide] | 14 | 240
COCCCc1cncc(Nc2cc(COc3ccc(NC(=O)Nc4cc(C(C)(C)C)nn4-c4ccc(C)cc4)c4ccccc34)ccn2)n1 [Example 153, 1-(3-(tert-butyl)-1-(p-tolyl)-1H-pyrazol-5-yl)-3-(4-((2-((6-(3-methoxypropyl)pyrazin-2-yl)amino)pyridin-4-yl)methoxy)naphthalen-1-yl)urea] | 20 | 77
COCCc1cncc(Nc2cc(COc3ccc(NC(=O)Nc4cc(C(C)(C)C)nn4-c4ccc(C)cc4)c4ccccc34)ccn2)n1 [Example 154, 1-(3-(tert-butyl)-1-(p-tolyl)-1H-pyrazol-5-yl)-3-(4-((2-((6-(2-methoxyethyl)pyrazin-2-yl)amino)pyridin-4-yl)methoxy)naphthalen-1-yl)urea] | 10 | 49
Cc1ccc(-n2nc(C(C)(C)C)cc2NC(=O)Nc2ccc(OCc3ccnc(Nc4cncc(CCCO)n4)c3)c3ccccc23)cc1 [Example 155, 1-(3-(tert-butyl)-1-(p-tolyl)-1H-pyrazol-5-yl)-3-(4-((2-((6-(3-hydroxypropyl)pyrazin-2-yl)amino)pyridin-4-yl)methoxy)naphthalen-1-yl)urea] | 8.9 | 31
COCCNC(=O)c1cnc(Nc2cc(COc3ccc(NC(=O)Nc4cc(C(C)(C)C)nn4-c4ccc(C)c(C)c4)c4ccccc34)ccn2)cn1 [Example 156] | 21 | 495
COCCOc1ccc(-n2nc(C(C)(C)C)cc2NC(=O)Nc2ccc(OCc3ccnc(Nc4cnccn4)c3)c3ccccc23)cc1C [Example 157, 1-(3-(tert-butyl)-1-(4-(2-methoxyethoxy)-3-methyl-phenyl)-1H-pyrazol-5-yl)-3-(4-((2-(pyrazin-2-ylamino)pyridin-4-yl)methoxy)naphthalen-1-yl) urea] | 23 | > 14900
COCC#Cc1cncc(Nc2cc(COc3ccc(NC(=O)Nc4cc(C(C)(C)C)nn4-c4ccc(C)cc4)c4ccccc34)ccn2)n1 [Example 158, 1-(3-(tert-butyl)-1-(p-tolyl)-1H-pyrazol-5-yl)-3-(4-((2-((6-(3-methoxyprop-1-yn-1-yl)pyrazin-2-yl)amino)pyridin-4-yl)methoxy)naphthalen-1-yl)urea] | 435 | > 15000
CCc1cnc(Nc2cc(COc3ccc(NC(=O)Nc4cc(C(C)(C)C)nn4-c4cccc(C)c4)c4ccccc34)ccn2)cn1 [Example 159, 1-(3-(tert-butyl)-1-(m-tolyl)-1H-pyrazol-5-yl)-3-(4-((2-((5-ethylpyrazin-2-yl)amino)pyridin-4-yl)methoxy)naphthalen-1-yl)urea] | 36 | 427
Cc1cccc(-n2nc(C(C)(C)C)cc2NC(=O)Nc2ccc(OCc3ccnc(Nc4cncc(C5CC5)n4)c3)c3ccccc23)c1 [Example 160, 1-(3-(tert-butyl)-1-(m-tolyl)-1H-pyrazol-5-yl)-3-(4-((2-((6-cyclopropylpyrazin-2-yl)amino)pyridin-4-yl)methoxy)naphthalen-1-yl) urea] | 34 | 510
Cc1ccc(-n2nc(C(C)(C)C)cc2NC(=O)Nc2ccc(OCc3ccnc(Nc4cncc(C5CCOCC5)n4)c3)c3ccccc23)cc1 [Example 161, 1-(3-(tert-butyl)-1-(p-tolyl)-1H-pyrazol-5-yl)-3-(4-((2-((6-(tetrahydro-2H-pyran-4-yl)pyrazin-2-yl)amino)pyridin-4-yl)methoxy)naphthalen-1-yl)urea] | 10 | 74
Cc1ccc(-n2nc(C(C)(C)C)cc2NC(=O)Nc2ccc(OCc3ccnc(Nc4cnc(C(=O)N5CC[C@@H](O)C5)cn4)c3)c3ccccc23)cc1 [Example 162, (R)-1-(3-(tert-butyl)-1-(p-tolyl)-1H-pyrazol-5-yl)-3-(4-((2-((5-(3-hydroxypyrrolidine-1-carbonyl)pyrazin-2-yl)amino)pyridin-4-yl)methoxy)naphthalen-1-yl)urea] | 4.7 | 37
COC1CN(C(=O)c2cnc(Nc3cc(COc4ccc(NC(=O)Nc5cc(C(C)(C)C)nn5-c5ccc(C)cc5)c5ccccc45)ccn3)cn2)C1 [Example 163, 1-(3-(tert-butyl)-1-(p-tolyl)-1H-pyrazol-5-yl)-3-(4-((2-((5-(3-methoxyazetidine-1-carbonyl)pyrazin-2-yl)amino)pyridin-4-yl)methoxy)naphthalen-1-yl) urea] | 19 | 389
CCc1ccc(-n2nc(C(C)(C)C)cc2NC(=O)Nc2ccc(OCc3ccnc(Nc4cnc(CO)cn4)c3)c3ccccc23)cc1 [Example 164, 1-(3-(tert-butyl)-1-(4-ethylphenyl)-1H-pyrazol-5-yl)-3-(4-((2-((5-(hydroxymethyl)pyrazin-2-yl)amino)pyridin-4-yl)methoxy)naphthalen-1-yl) urea] | 6.8 | 2340
CCc1cccc(-n2nc(C(C)(C)C)cc2NC(=O)Nc2ccc(OCc3ccnc(Nc4cnccn4)c3)c3ccccc23)c1 [Example 165, 1-(3-(tert-butyl)-1-(3-ethyl-phenyl)-1H-pyrazol-5-yl)-3-(4-((2-(pyrazin-2-ylamino)pyridin-4-yl)methoxy)naphthalen-1-yl) urea] | 12 | 128
COCc1cccc(-n2nc(C(C)(C)C)cc2NC(=O)Nc2ccc(OCc3ccnc(Nc4cnccn4)c3)c3ccccc23)c1 [Example 166, 1-(3-(tert-butyl)-1-(3-(methoxymethyl)phenyl)-1H-pyrazol-5-yl)-3-(4-((2-(pyrazin-2-ylamino)pyridin-4-yl)methoxy)naphthalen-1-yl)urea] | 6.2 | 52
CCc1cncc(Nc2cc(COc3ccc(NC(=O)Nc4cc(C(C)(C)C)nn4-c4ccc(C)c(F)c4)c4ccccc34)ccn2)n1 [Example 167, 1-(3-(tert-butyl)-1-(3-fluoro-4-methylphenyl)-1H-pyrazol-5-yl)-3-(4-((2-((6-ethylpyrazin-2-yl)amino)pyridin-4-yl)methoxy)naphthalen-1-yl) urea] | 25 | 259
CCc1cncc(Nc2cc(COc3ccc(NC(=O)Nc4cc(C(C)(C)C)nn4-c4ccc(OC)c(F)c4)c4ccccc34)ccn2)n1 [Example 168, 1-(3-(tert-butyl)-1-(3-fluoro-4-methoxyphenyl)-1H-pyrazol-5-yl)-3-(4-((2-((6-ethylpyrazin-2-yl)amino)pyridin-4-yl)methoxy)naphthalen-1-yl)urea] | 34 | 1200
Cc1ncc(Nc2cc(COc3ccc(NC(=O)Nc4cc(C(C)(C)C)nn4-c4cccc(F)c4)c4ccccc34)ccn2)nc1C [Example 169, 1-(3-(tert-butyl)-1-(3-fluorophenyl)-1H-pyrazol-5-yl)-3-(4-((2-((5,6-dimethylpyrazin-2-yl)amino)pyridin-4-yl)methoxy)naphthalen-1-yl)urea] | 26 | 449
COc1cccc(-n2nc(C(C)(C)C)cc2NC(=O)Nc2ccc(OCc3ccnc(Nc4cnc(C)c(C)n4)c3)c3ccccc23)c1 [Example 170, 1-(3-(tert-butyl)-1-(3-methoxyphenyl)-1H-pyrazol-5-yl)-3-(4-((2-((5,6-dimethylpyrazin-2-yl)amino)pyridin-4-yl)methoxy)naphthalen-1-yl)urea] | 35 | 329

Reference: patent US11142515B2, “Pyrazolyl-ureas as kinase inhibitors” (RESPIVERT LIMITED, priority 2014, dated 2021)
